Assay results taken from ChEMBL document CHEMBL4011640, “Identification and Structure-Activity Relationships of Novel Compounds that Potentiate the Activities of Antibiotics in Escherichia coli” (J Med Chem, 2017).
≈ marks a conversion by molar mass, not a printed value. Calls of active or inactive are those of the source. The rule behind the calls is not given here.

What was measured:
Escherichia coli BW25113 [1] = assay: Inhibition of AcrA efflux pump in Escherichia coli BW25113 assessed as compound concentration required for potentiation of novobiocin-induced antibacterial activity by 4 fold by checkerboard assay
Escherichia coli [2] = assay: Antimicrobial activity against Escherichia coli harboring AcrAB-TolC deletion mutant after 24 hrs by two-fold broth microdilution assay; assay type: functional
Escherichia coli [3] = assay: Antimicrobial activity against AcrAB-TolC knocked out Escherichia coli GD102 harboring […] pores in the outer membrane after 24 hrs by two-fold broth microdilution assay; assay type: functional; settings: GD102, 24 h
Escherichia coli [4] = assay: Antimicrobial activity against Escherichia coli BW25113 after 24 hrs by two-fold broth microdilution assay; assay type: functional; settings: BW25113, 24 h
[5] = Ratio of MIC for wild type Escherichia coli BW25113 to MIC for Escherichia coli harboring […] pores in the outer membrane; assay type: functional, cell membranes
Escherichia coli [6] = assay: Antimicrobial activity against Escherichia coli harboring pores in outer membrane after 24 hrs by two-fold broth microdilution assay; assay type: functional
Escherichia coli [7] = assay: Inhibition of AcrA in Escherichia coli assessed as increase in HT dye uptake at 25 uM measured up to 600 secs by fluorescence method
Escherichia coli [8] = assay: Inhibition of AcrA in Escherichia coli assessed as HT dye uptake at 25 uM measured up to 600 secs by fluorescence method relative to control
Escherichia coli [9] = assay: Ratio of MIC for wild type Escherichia coli harboring […] pores in the outer membrane to MIC for wild type Escherichia coli harboring […] pores in the outer membrane in presence of erythromycin; assay type: functional
Escherichia coli [10] = assay: Ratio of MIC for wild type Escherichia coli harboring […] pores in the outer membrane to MIC for wild type Escherichia coli harboring […] pores in the outer membrane in presence of novobiocin; assay type: functional
Escherichia coli [11] = assay: Ratio of MIC for wild type Escherichia coli harboring […] pores in the outer membrane to MIC for AcrAB-TolC knocked out Escherichia coli GD102 harboring […] pores in the outer membrane; assay type: functional
Escherichia coli [12] = assay: Binding affinity to Escherichia coli AG100 His-tagged AcrA at 25 uM by SPR assay
Escherichia coli [13] = assay: Inhibition of AcrA in Escherichia coli assessed as increase in HT dye uptake at 25 uM measured up to 600 secs by fluorescence method relative to control
Escherichia coli [14] = assay: Disruption of transmembrane potential in Escherichia coli live cells harboring pores in outer membrane at 10 uM by DiSC3(5) probe-based fluorescence assay; assay type: functional
Escherichia coli BW25113 [15] = assay: Inhibition of AcrA efflux pump in Escherichia coli BW25113 assessed as compound concentration required for potentiation of novobiocin-induced antibacterial activity by 2 fold by checkerboard assay
HEK293 = assay: Cytotoxicity against HEK293 cells assessed as reduction in cell viability after overnight incubation by Cell Titer Glo assay; assay type: cell-based; settings: Homo sapiens
Escherichia coli [16] = assay: Binding affinity to Escherichia coli AG100 His-tagged AcrA at 50 uM by SPR assay

## Cn1cnnc1-c1ccc(NC(=O)c2ccc(C(=O)Nc3ccc(-c4nncn4C)cc3)c(Cl)c2)cc1
Escherichia coli BW25113 [1]
  Activity: > 400 µM

## O=C(/C=C/c1ccc(Cl)cc1)Nc1ccc(C2=NCCN2)cc1
Escherichia coli BW25113 [1]
  Activity: 25 µM
Escherichia coli [2]
  MIC: 50 µM (≈ 16.3 µg/mL)
Escherichia coli [3]
  MIC: 25 µM (≈ 8.14 µg/mL)
Escherichia coli [4]
  MIC: 200 µM (≈ 65.2 µg/mL)
[5]
  Ratio: 2
Escherichia coli [6]
  MIC: 100 µM (≈ 32.6 µg/mL)
Escherichia coli [7]
  Activity: Active
Escherichia coli [8]
  fold change (FC): 2.5
Escherichia coli [9]
  Ratio: 4
Escherichia coli [10]
  Ratio: 8
Escherichia coli [11]
  Ratio: 4

## O=C(Nc1ccc(-c2ncc[nH]2)cc1)c1ccc(C(=O)Nc2ccc(-c3ncc[nH]3)cc2)c(Cl)c1
Escherichia coli BW25113 [1]
  Activity: > 400 µM

## O=C(Nc1ccc(C2=NCCN2)cc1)c1ccc(C(=O)Nc2ccc(C3=NCCN3)cc2)c([N+](=O)[O-])c1
Escherichia coli BW25113 [1]
  Activity: 25 µM

## COc1ccc(/C=C/C(=O)Nc2ccc(C3=NCCN3)cc2)cc1
Escherichia coli BW25113 [1]
  Activity: 100 µM

## O=C(CCc1ccccc1)Nc1ccc(C2=NCCN2)cc1
Escherichia coli BW25113 [1]
  Activity: > 100 µM

## O=C(Nc1ccc(C2=NCCN2)cc1)c1ccc2cc(Br)ccc2c1
Escherichia coli BW25113 [1]
  Activity: 25 µM
Escherichia coli [2]
  MIC: 25 µM (≈ 9.86 µg/mL)
Escherichia coli [3]
  MIC: 12.5 µM (≈ 4.93 µg/mL)
Escherichia coli [12]
  Activity: Active
Escherichia coli [4]
  MIC: > 400 µM
[5]
  Ratio: 4
Escherichia coli [6]
  MIC: 200 µM (≈ 78.9 µg/mL)
Escherichia coli [13]
  fold change (FC): 1.6
Escherichia coli [7]
  Activity: Active
Escherichia coli [8]
  fold change (FC): 16
Escherichia coli [9]
  Ratio: 16
Escherichia coli [10]
  Ratio: 16
Escherichia coli [11]
  Ratio: 16

## N#Cc1cccc(NC(=O)c2ccc(C(=O)Nc3cccc(C#N)c3)c(Cl)c2)c1
Escherichia coli BW25113 [1]
  Activity: > 400 µM

## O=C(Nc1ccc(S(=O)(=O)O)cc1)c1ccc(C(=O)Nc2ccc(S(=O)(=O)O)cc2)cc1
Escherichia coli BW25113 [1]
  Activity: > 100 µM

## O=C(/C=C/c1ccccc1C(F)(F)F)Nc1ccc(C2=NCCN2)cc1
Escherichia coli BW25113 [1]
  Activity: 50 µM

## O=C(Nc1ccc(C2=NCCN2)cc1)c1ccc(Cl)cc1
Escherichia coli BW25113 [1]
  Activity: 200 µM

## O=C(/C=C/c1ccccc1Br)Nc1ccc(C2=NCCN2)cc1
Escherichia coli BW25113 [1]
  Activity: 50 µM
Escherichia coli [2]
  MIC: 200 µM (≈ 74.1 µg/mL)
Escherichia coli [3]
  MIC: 100 µM (≈ 37 µg/mL)
Escherichia coli [12]
  Activity: Active
Escherichia coli [4]
  MIC: > 400 µM
[5]
  Ratio: 1
Escherichia coli [6]
  MIC: > 400 µM
Escherichia coli [7]
  Activity: Active
Escherichia coli [8]
  fold change (FC): 11.6
Escherichia coli [9]
  Ratio: 32
Escherichia coli [10]
  Ratio: 32
Escherichia coli [11]
  Ratio: 8

## CC(C)[C@@H]1NC(=O)[C@H](C)OC(=O)[C@@H](C(C)C)NC(=O)[C@@H](C(C)C)OC(=O)[C@H](C(C)C)NC(=O)[C@H](C)OC(=O)[C@@H](C(C)C)NC(=O)[C@@H](C(C)C)OC(=O)[C@H](C(C)C)NC(=O)[C@H](C)OC(=O)[C@@H](C(C)C)NC(=O)[C@@H](C(C)C)OC1=O
Escherichia coli [14]; TDE = time-dependent effect
  Activity: Tde

## O=C(/C=C/c1ccc(Br)cc1)Nc1ccc(C2=NCCN2)cc1
Escherichia coli BW25113 [1]
  Activity: 100 µM

## O=C(Cc1ccc(Cl)cc1)Nc1ccc(C2=NCCN2)cc1
Escherichia coli BW25113 [1]
  Activity: > 100 µM

## Nc1ccc(C2=NCCN2C(=O)c2ccc(C(=O)N3CCN=C3c3ccc(N)cc3)c(Cl)c2)cc1
Escherichia coli BW25113 [1]
  Activity: 50 µM

## O=C(Nc1ccc(C2=NCCN2)cc1)c1ccc(C(=O)Nc2ccc(C3=NCCN3)cc2)c(F)c1
Escherichia coli BW25113 [1]
  Activity: 100 µM

## N#Cc1ccc(NC(=O)c2ccc(C(=O)Nc3ccc(C#N)cc3)c(Cl)c2)cc1
Escherichia coli BW25113 [1]
  Activity: > 400 µM

## COC(=O)c1ccc(C(=O)Nc2ccc(C3=NCCN3)cc2)cc1
Escherichia coli BW25113 [1]
  Activity: > 400 µM

## O=C(CCC(=O)Nc1ccc(C2=NCCN2)cc1)Nc1ccc(C2=NCCN2)cc1
Escherichia coli BW25113 [1]
  Activity: > 400 µM

## O=C(NCc1ccccc1)c1ccc(C(=O)Nc2ccc(C3=NCCN3)cc2)cc1
Escherichia coli BW25113 [1]
  Activity: > 200 µM

## O=C(Nc1ccc(C2=NCCN2)cc1)c1ccc2c(c1)CN(Cc1ccccc1)C2=O
Escherichia coli BW25113 [1]
  Activity: > 200 µM

## CC(C)(C)c1ccc(/C=C/C(=O)Nc2ccc(C3=NCCN3)cc2)cc1
Escherichia coli BW25113 [15]
  Activity: 12.5 µM
Escherichia coli [2]
  MIC: 12.5 µM (≈ 4.34 µg/mL)
Escherichia coli [3]
  MIC: 12.5 µM (≈ 4.34 µg/mL)
Escherichia coli [12]
  Activity: Active
Escherichia coli [4]
  MIC: 25 µM (≈ 8.69 µg/mL)
[5]
  Ratio: 1
Escherichia coli [6]
  MIC: 25 µM (≈ 8.69 µg/mL)
Escherichia coli [13]
  fold change (FC): 2.6
Escherichia coli [7]
  Activity: Active
Escherichia coli [8]
  fold change (FC): 2.6
Escherichia coli [9]
  Ratio: 2
Escherichia coli [10]
  Ratio: 2
Escherichia coli [11]
  Ratio: 2

## O=C(/C=C/c1ccccc1)Nc1ccc(C2=NCCN2)cc1
Escherichia coli BW25113 [1]
  Activity: 200 µM

## O=C(Nc1ccc(C2=NCCN2)cc1)c1cccc(C(=O)Nc2ccc(C3=NCCN3)cc2)c1
Escherichia coli BW25113 [1]
  Activity: 200 µM

## O=C(Nc1ccc(C2=NCCN2)cc1)c1ccc(C(=O)Nc2ccc(C3=NCCN3)cc2)c(Br)c1
Escherichia coli BW25113 [1]
  Activity: 50 µM

## CC(C)c1ccc(/C=C/C(=O)Nc2ccc(C3=NCCN3)cc2)cc1
Escherichia coli BW25113 [1]
  Activity: 50 µM
Escherichia coli [2]
  MIC: 25 µM (≈ 8.34 µg/mL)
Escherichia coli [14]
  Activity: inactive
Escherichia coli [3]
  MIC: 25 µM (≈ 8.34 µg/mL)
Escherichia coli [12]
  Activity: Active
Escherichia coli [4]
  MIC: 100 µM (≈ 33.3 µg/mL)
[5]
  Ratio: 2
Escherichia coli [6]
  MIC: 50 µM (≈ 16.7 µg/mL)
HEK293
  IC50: > 100 µM
Escherichia coli [7]
  Activity: Active
Escherichia coli [8]
  fold change (FC): 6.3
Escherichia coli [9]
  Ratio: 8
Escherichia coli [10]
  Ratio: 8
Escherichia coli [11]
  Ratio: 2

## O=C(Nc1cccc(C2=NCCN2)c1)c1ccc(C(=O)Nc2cccc(C3=NCCN3)c2)cc1
Escherichia coli BW25113 [1]
  Activity: 50 µM
Escherichia coli [2]
  MIC: 50 µM (≈ 22.6 µg/mL)
Escherichia coli [3]
  MIC: 25 µM (≈ 11.3 µg/mL)
Escherichia coli [12]
  Activity: Active
Escherichia coli [4]
  MIC: 200 µM (≈ 90.5 µg/mL)
[5]
  Ratio: 2
Escherichia coli [6]
  MIC: 100 µM (≈ 45.3 µg/mL)
Escherichia coli [7]
  Activity: Active
Escherichia coli [8]
  fold change (FC): 1.7
Escherichia coli [9]
  Ratio: 4
Escherichia coli [10]
  Ratio: 4
Escherichia coli [11]
  Ratio: 4

## O=C(Nc1ccc(CO)cc1)c1ccc(C(=O)Nc2ccc(CO)cc2)c(Cl)c1
Escherichia coli BW25113 [1]
  Activity: > 200 µM

## O=C(Nc1ccc(C2=NCCN2)cc1)c1ccc(C(=O)Nc2ccc(C3=NCCN3)cc2)cc1
Escherichia coli BW25113 [1]
  Activity: 50 µM

## O=C(Nc1ccc(C2=NCCN2)cc1)c1ccc(C(=O)Nc2ccc(C3=NCCN3)cc2)c(Cl)c1
Escherichia coli BW25113 [1]
  Activity: 25 µM
Escherichia coli [2]
  MIC: 25 µM (≈ 12.2 µg/mL)
Escherichia coli [14]
  Activity: inactive
Escherichia coli [3]
  MIC: 12.5 µM (≈ 6.09 µg/mL)
Escherichia coli [12]
  Activity: Active
Escherichia coli [4]
  MIC: > 200 µM
[5]
  Ratio: 4
Escherichia coli [6]
  MIC: 100 µM (≈ 48.7 µg/mL)
Escherichia coli [7]
  Activity: Active
Escherichia coli [16]
  Activity: Active
Escherichia coli [8]
  fold change (FC): 3.2
Escherichia coli [9]
  Ratio: 8
Escherichia coli [10]
  Ratio: 16
Escherichia coli [11]
  Ratio: 8

## Cc1cc(C(=O)Nc2ccc(C3=NCCN3)cc2)ccc1C(=O)Nc1ccc(C2=NCCN2)cc1
Escherichia coli BW25113 [1]
  Activity: 25 µM

## NCc1ccc(NC(=O)c2ccc(C(=O)Nc3ccc(CN)cc3)cc2)cc1
Escherichia coli BW25113 [1]
  Activity: 50 µM

## O=C(/C=C/c1ccccc1Cl)Nc1ccc(C2=NCCN2)cc1
Escherichia coli BW25113 [1]
  Activity: 25 µM
Escherichia coli [2]
  MIC: 200 µM (≈ 65.2 µg/mL)
Escherichia coli [14]
  Activity: inactive
Escherichia coli [3]
  MIC: 100 µM (≈ 32.6 µg/mL)
Escherichia coli [12]
  Activity: Active
Escherichia coli [4]
  MIC: > 200 µM
[5]
  Ratio: 1
Escherichia coli [6]
  MIC: 400 µM (≈ 130 µg/mL)
HEK293
  IC50: 10.5 µM
Escherichia coli [7]
  Activity: Active
Escherichia coli [8]
  fold change (FC): 9.7
Escherichia coli [9]
  Ratio: 8
Escherichia coli [10]
  Ratio: 32
Escherichia coli [11]
  Ratio: 4

## O=C(Nc1ccc(NC(=O)c2ccc(C3=NCCN3)cc2)cc1)c1ccc(C2=NCCN2)cc1
Escherichia coli BW25113 [1]
  Activity: 12.5 µM
Escherichia coli [2]
  MIC: 25 µM (≈ 11.3 µg/mL)
Escherichia coli [3]
  MIC: 12.5 µM (≈ 5.66 µg/mL)
Escherichia coli [12]
  Activity: Active
Escherichia coli [4]
  MIC: 50 µM (≈ 22.6 µg/mL)
Escherichia coli [6]
  MIC: 50 µM (≈ 22.6 µg/mL)
Escherichia coli [7]
  Activity: inactive
Escherichia coli [16]
  Activity: Active

## O=C(/C=C/c1cccc(Cl)c1)Nc1ccc(C2=NCCN2)cc1
Escherichia coli BW25113 [1]
  Activity: 50 µM
